The results in this text go back to ChEMBL document CHEMBL5236633, “Multi-therapies Based on PARP Inhibition: Potential Therapeutic Approaches for Cancer Treatment” (J Med Chem, 2022).

In general, IC50 refers to the concentration at which inhibition is half-maximal. A word on the DC50: it is the concentration giving 50% degradation.

The test system of experiment [1] is A549. The experiment is described as follows: Antiproliferative activity against human A549 cells assessed as cell growth inhibition. The experiment is classed as functional, cell-based.
For experiment [2], the system named is A549. Briefly: Antiproliferative activity against human A549 cells assessed as cell growth inhibition measured after 24 hrs by MTT assay. Type of experiment: functional, cell-based. The settings on record: A549, 24 h.
Experiment [3] concerns the target T1, Poly [ADP-ribose] polymerase 1 (Homo sapiens, UniProt P09874). The experiment is described as follows: Inhibition of PARP1 (unknown origin).
Experiment [4] relates to MDA-MB-231. Briefly: Antiproliferative activity against human MDA-MB-231 cells assessed as cell growth inhibition incubated for 24 hrs by CCK-8 assay. Type of experiment: functional, cell-based. As to conditions: MDA-MB-231, 24 h. Background: Tetrazolium assays rely on reduction of a dye to a coloured formazan, in cell work by metabolically active cells.
Experiment [5] concerns MDA-MB-231. Briefly: Antiproliferative activity against human MDA-MB-231 cells assessed as cell growth inhibition incubated for 24 hrs in presence of nutlin-3 by CCK-8 assay. As to conditions: MDA-MB-231, 24 h.
The target in experiment [6] is T2, Protein mono-ADP-ribosyltransferase PARP16 (Homo sapiens, UniProt Q8N5Y8).
T2 sequence (Q8N5Y8 whole entry): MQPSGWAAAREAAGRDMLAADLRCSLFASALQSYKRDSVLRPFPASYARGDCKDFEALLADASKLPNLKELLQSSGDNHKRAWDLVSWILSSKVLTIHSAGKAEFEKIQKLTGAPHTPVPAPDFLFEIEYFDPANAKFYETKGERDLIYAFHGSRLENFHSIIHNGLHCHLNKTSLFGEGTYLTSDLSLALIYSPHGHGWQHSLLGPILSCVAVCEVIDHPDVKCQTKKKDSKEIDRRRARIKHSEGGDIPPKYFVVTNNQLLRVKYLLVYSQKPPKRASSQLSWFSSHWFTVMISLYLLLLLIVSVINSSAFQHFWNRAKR
Briefly: Inhibition of PARP16 (unknown origin).

For experiment [7], the target named is T3, Protein mono-ADP-ribosyltransferase PARP3 (Homo sapiens, UniProt Q9Y6F1).
T3 sequence (Q9Y6F1 whole entry): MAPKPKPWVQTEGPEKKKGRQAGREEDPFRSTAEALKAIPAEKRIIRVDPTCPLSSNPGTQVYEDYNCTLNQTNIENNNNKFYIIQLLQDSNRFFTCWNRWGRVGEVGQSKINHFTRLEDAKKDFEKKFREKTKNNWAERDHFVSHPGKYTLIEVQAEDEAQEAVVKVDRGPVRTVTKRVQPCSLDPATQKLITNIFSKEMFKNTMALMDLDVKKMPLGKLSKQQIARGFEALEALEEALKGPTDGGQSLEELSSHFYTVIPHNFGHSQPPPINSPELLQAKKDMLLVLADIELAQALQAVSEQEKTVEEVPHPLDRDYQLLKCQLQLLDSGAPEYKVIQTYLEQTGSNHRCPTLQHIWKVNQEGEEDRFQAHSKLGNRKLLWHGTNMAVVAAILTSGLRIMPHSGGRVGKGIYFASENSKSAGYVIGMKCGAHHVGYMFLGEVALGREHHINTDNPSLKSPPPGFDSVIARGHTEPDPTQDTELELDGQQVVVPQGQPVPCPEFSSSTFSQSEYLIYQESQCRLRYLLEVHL
The experiment is described as follows: Inhibition of PARP3 (unknown origin).

Experiment [8] has as its target Protein cereblon/Poly [ADP-ribose] polymerase 1 (Homo sapiens, UniProt P09874+Q96SW2). The experiment is described as follows: Protac activity at CRBN/PARP1 in human HeLa cells assessed as induction of PARP-1 degradation measured after 24 hrs by immunoblotting analysis. Type of experiment: cell-based. (A western blot detects proteins with antibodies after separation by electrophoresis.)

Experiment [9] has as its target Epidermal growth factor receptor (Homo sapiens, UniProt P00533). Briefly: Inhibition of EGFR (unknown origin).
Experiment [10] has as its system MDA-MB-231. The experiment is described as follows: Antiproliferative activity against human MDA-MB-231 cells assessed as cell growth inhibition at 10 uM incubated for 24 hrs by CCK-8 assay relative to control. Details: scale not given: the % may be the effect or the level left. The experiment is classed as functional.
Experiment [11] concerns the target T1, Poly [ADP-ribose] polymerase 1. Briefly: Inhibition of PARP1 (unknown origin) incubated for 30 mins by fluorescence based analysis.
The subject of another experiment is MDA-MB-436. Briefly: Antiproliferative activity against human BRCA1 -/- MDA-MB-436 cells assessed as cell growth inhibition. The experiment is classed as functional, cell-based.

T1 sequence (P09874 whole entry): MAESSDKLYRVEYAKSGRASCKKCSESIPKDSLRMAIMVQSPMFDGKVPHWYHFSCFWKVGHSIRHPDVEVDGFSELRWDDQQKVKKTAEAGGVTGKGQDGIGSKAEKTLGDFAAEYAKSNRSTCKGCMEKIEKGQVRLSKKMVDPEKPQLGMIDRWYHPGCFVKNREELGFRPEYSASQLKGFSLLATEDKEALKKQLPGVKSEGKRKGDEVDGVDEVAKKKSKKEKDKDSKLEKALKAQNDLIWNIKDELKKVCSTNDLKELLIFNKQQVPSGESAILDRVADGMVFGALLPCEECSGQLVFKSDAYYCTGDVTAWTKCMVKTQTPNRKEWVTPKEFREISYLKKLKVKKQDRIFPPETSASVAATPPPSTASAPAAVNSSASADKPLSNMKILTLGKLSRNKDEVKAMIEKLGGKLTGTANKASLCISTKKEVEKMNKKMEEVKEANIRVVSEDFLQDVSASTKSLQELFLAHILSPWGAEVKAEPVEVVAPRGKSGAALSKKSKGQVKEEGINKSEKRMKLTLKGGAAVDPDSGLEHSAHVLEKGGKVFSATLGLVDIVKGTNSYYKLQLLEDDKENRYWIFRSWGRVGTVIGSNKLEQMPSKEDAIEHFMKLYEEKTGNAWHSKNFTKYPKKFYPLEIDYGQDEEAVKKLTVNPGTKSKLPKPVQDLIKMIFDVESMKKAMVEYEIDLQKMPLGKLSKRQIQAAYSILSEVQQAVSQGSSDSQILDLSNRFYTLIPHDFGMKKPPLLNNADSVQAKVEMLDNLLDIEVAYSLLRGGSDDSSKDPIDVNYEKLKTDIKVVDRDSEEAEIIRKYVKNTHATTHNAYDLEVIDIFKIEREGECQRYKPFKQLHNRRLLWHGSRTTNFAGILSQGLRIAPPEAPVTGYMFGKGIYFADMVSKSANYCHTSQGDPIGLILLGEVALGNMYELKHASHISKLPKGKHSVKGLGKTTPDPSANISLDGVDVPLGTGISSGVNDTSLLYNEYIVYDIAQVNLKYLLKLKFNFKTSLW
Chain of Protein cereblon/Poly [ADP-ribose] polymerase 1 (P09874 whole entry): as above
Chain of Protein cereblon/Poly [ADP-ribose] polymerase 1 (Q96SW2 whole entry): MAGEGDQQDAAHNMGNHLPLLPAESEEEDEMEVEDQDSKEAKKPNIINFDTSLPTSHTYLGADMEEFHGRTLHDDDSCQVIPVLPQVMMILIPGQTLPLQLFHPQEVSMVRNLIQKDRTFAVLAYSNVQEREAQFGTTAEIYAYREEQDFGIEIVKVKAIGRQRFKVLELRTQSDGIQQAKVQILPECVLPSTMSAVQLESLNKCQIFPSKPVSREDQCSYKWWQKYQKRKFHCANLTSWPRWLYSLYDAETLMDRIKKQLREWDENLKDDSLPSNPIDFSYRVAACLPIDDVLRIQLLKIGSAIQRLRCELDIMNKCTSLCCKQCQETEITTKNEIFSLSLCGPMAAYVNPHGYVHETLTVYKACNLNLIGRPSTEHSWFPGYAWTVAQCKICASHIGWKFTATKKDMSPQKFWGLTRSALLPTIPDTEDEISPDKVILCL
Chain of Epidermal growth factor receptor (P00533 whole entry): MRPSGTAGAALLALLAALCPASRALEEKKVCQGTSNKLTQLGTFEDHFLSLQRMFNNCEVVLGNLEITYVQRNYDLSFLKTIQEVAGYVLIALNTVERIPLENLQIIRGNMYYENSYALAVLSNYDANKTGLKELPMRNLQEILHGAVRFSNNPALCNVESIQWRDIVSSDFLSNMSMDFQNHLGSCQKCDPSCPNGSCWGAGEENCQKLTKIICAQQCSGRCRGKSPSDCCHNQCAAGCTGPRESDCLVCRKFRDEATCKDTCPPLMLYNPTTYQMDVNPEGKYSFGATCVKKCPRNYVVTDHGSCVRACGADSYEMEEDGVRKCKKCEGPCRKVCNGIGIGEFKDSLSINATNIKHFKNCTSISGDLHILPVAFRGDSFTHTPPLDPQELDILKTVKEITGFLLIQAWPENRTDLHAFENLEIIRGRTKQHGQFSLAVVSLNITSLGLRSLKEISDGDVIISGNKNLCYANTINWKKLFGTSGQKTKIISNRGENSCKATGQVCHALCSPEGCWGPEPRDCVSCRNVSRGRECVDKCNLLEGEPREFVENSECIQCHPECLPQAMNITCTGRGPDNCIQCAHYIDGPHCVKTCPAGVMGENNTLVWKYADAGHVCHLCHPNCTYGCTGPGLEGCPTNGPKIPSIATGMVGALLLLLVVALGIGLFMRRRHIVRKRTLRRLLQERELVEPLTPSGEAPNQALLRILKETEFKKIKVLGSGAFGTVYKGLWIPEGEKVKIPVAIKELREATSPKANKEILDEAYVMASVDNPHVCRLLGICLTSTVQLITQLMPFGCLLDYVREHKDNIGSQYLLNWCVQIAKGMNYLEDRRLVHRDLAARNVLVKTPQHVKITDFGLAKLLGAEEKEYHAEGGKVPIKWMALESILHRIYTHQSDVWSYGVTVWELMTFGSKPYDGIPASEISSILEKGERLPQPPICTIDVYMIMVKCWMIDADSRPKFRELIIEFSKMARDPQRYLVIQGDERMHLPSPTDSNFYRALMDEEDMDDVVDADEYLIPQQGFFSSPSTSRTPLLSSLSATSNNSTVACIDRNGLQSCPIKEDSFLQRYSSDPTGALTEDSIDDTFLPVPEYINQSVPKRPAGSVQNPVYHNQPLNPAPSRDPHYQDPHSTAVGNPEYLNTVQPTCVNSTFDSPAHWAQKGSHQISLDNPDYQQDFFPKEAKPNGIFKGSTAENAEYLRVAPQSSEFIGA

Consider `O=C1CCN(Cc2cn(-c3ccccc3F)nn2)C2(CCCCC2)c2ccccc21`, for which the IC50 in the experiment with A549 [1] is 1890 nM.

With `O=C1CCc2cc(-c3ccccc3F)ccc2C2(CCCCC2)N1`, the results for the half-maximal inhibitory concentration (IC50) (in the experiment with A549 [2]; in [3]) were 2010 nM and 19.9 nM, respectively.

`NC(=O)c1cccc2cn(-c3ccc([C@@H]4CCCNC4)cc3)nc12` [NIRAPARIB]: the 50% inhibitory concentration (IC50) in the experiment with MDA-MB-231 [4] was determined as 33200 nM; with MDA-MB-231 [5], 60900 nM.

For the compound `O=C1NCC(c2ccccn2)[C@@H](O)c2cc(Cl)c(Cl)cc21` (some centres undefined), the IC50 worked out at 362 nM in experiment [6] and 74100 nM in experiment [7].

With `CN(CCOCCOCCOCCOCCOCCOCCNc1cccc2c1C(=O)N(C1CCC(=O)NC1=O)C2=O)Cc1ccc(-c2[nH]c3cc(F)cc4c3c2CCNC4=O)cc1` (centres undefined), the DC50 in experiment [8] was 36 nM.

As to `COc1ccc(C2=NC(c3ccc(Cl)cc3)C(c3ccc(Cl)cc3)N2C(=O)N2CCNC(=O)C2)c(OC(C)C)c1` (centres undefined), the IC50 in the experiment with MDA-MB-231 [4] is 28500 nM.

Consider `Cc1nnc2n1N=C(c1ccccc1OCCNCCCNCCOc1ccccc1C1=Nn3c(C)nnc3SC1)CS2`, for which the IC50 in [9] was 64.7 nM; in experiment [3], 1.37 nM.

Regarding `COc1ccc(C2=N[C@H](c3ccc(Cl)cc3)[C@H](c3ccc(Cl)cc3)N2C(=O)N2CCN(CC(=O)NCCOCCOCCOCCOCCn3cc(-c4ccc(-n5cc6cccc(C(N)=O)c6n5)cc4)nn3)C(=O)C2)c(OC(C)C)c1`, the IC50 in the experiment on MDA-MB-231 [4] was 8450 nM. For the same compound, in the experiment with MDA-MB-231 [10], the Activity came to 70%.

As to `O=c1cc(-c2ccc(O)c(-c3c(O)cc(O)c4c(=O)cc(-c5ccc(O)cc5)oc34)c2)oc2cc(O)cc(O)c12` [AMENTOFLAVONE], the IC50 in experiment [3] is 198 nM.

With `O=C(c1ccc(Cc2n[nH]c(=O)c3cccnc23)cc1)N1CCCC1`, 36 nM corresponded to half-maximal inhibition in [11] (IC50).

For `CC(c1nc2cccc(C(N)=O)c2[nH]1)N1CC(=O)N(c2cccc(C(F)(F)F)c2)C1=S` (centres undefined), the figures for the IC50 (in [11]; in the experiment with MDA-MB-436) were 25 nM and 1000 nM, respectively.

On to `O=C1CN(Cc2cn(-c3ccccc3F)nn2)C2(CCCCC2)c2ccccc21`, for which the half-inhibitory concentration (IC50) in the experiment with A549 [1] worked out at 230 nM; in [3] it was 14.4 nM.
